The results in this text go back to ChEMBL document CHEMBL5370538, “Discovery of novel 6-p-tolyl-3-(3,4,5-trimethoxybenzyl)-7H-[1,2,4]triazolo[3,4-b][1,3,4]thiadiazine derivative as a potent tubulin inhibitor with promising in vivo antitumor activity” (Eur J Med Chem, 2023).

A short description of series [1]: Tmax in Sprague-Dawley rat at 2 mg/kg,iv measured upto 24 hrs by LC-MS/MS analysis. Particulars: in vivo. It is filed as ADME, organism-based.
Series [2] is described as follows: Volume of distribution at steady state in Sprague-Dawley rat at 10 mg/kg,po measured upto 24 hrs by LC-MS/MS analysis. It is filed as ADME, organism-based. The note with it: in vivo.
The nature of series [3]: Volume of distribution at steady state in Sprague-Dawley rat at 2 mg/kg,iv measured upto 24 hrs by LC-MS/MS analysis. The note with it: in vivo. Format: ADME, organism-based.
A short description of series [4]: Oral bioavailability in Sprague-Dawley rat at 10 mg/kg measured upto 24 hrs by LC-MS/MS analysis. It is filed as ADME, organism-based. The note with it: in vivo.
Series [5] has as its system HeLa. The series can be described thus: Induction of apoptosis in human HeLa cells assessed as late apoptotic cells at 0.12 uM incubated for 24 hrs Annexin V-FITC/PI staining based flow cytometry analysis (Rvb= 2.13 %). It is filed as functional.
Series [6] in a line: MRT (0-infinity) in Sprague-Dawley rat at 10 mg/kg,po measured upto 24 hrs by LC-MS/MS analysis. Format: ADME, organism-based. The note with it: in vivo.
The subject of series [7] is HeLa. The series can be described thus: Induction of cell cycle arrest in human HeLa cells assessed as accumulation of cells at G2/M phase at 0.06 uM incubated for 24 hrs by propidium iodide staining based flow cytometry (reference value: 17.38 %). It is filed as functional.
Series [8] concerns HeLa. Nature of the series: Induction of cell cycle arrest in human HeLa cells assessed as accumulation of cells at G2/M phase at 0.12 uM incubated for 24 hrs by propidium iodide staining based flow cytometry (reference value: 17.38 %). Format: functional.
Series [9] relates to HeLa. The series can be described thus: Induction of apoptosis in human HeLa cells assessed as necrotic cells at 0.06 uM incubated for 24 hrs Annexin V-FITC/PI staining based flow cytometry analysis (Rvb= 0.12 %). It is filed as functional.
For series [10], the system named is HUVEC. Nature of the series: Antivascular activity against human HUVEC cells assessed as inhibition of cell migration incubated for 24 hrs by wound healing assay. Format: functional, cell-based.
For series [11], the system named is A549. Nature of the series: Antitumor activity against human A549 cells xenografted in Balb/c mouse assessed as inhibition of tumor weight at 60 mg/kg,ip administrated for 7 days. Format: functional, organism-based. The note with it: time 7.0 day.
For series [12], the system named is HeLa. Nature of the series: Induction of cell cycle arrest in human HeLa cells assessed as accumulation of cells at S phase at 0.03 uM incubated for 24 hrs by propidium iodide staining based flow cytometry (reference value: 20.22 %). Format: functional.
The nature of series [13]: Clearance in Sprague-Dawley rat at 10 mg/kg,po measured upto 24 hrs by LC-MS/MS analysis. Format: ADME, organism-based. Particulars: in vivo.
For series [14], the system named is HeLa. The series can be described thus: Induction of apoptosis in human HeLa cells assessed as viable cells at 0.12 uM incubated for 24 hrs Annexin V-FITC/PI staining based flow cytometry analysis (Rvb= 95.9 %). Format: functional. Particulars: read-out: Activity.
Series [15] is described as follows: MRT (0-infinity) in Sprague-Dawley rat at 2 mg/kg,iv measured upto 24 hrs by LC-MS/MS analysis. The note with it: in vivo. It is filed as ADME, organism-based.

Each structure is given as a SMILES string. Active and inactive are the calls of the source. The calls are words filed in the database; no cut-off is given here.

In the case of `COc1cc(Cc2nnc3n2N=C(c2ccc(C)cc2)CS3)cc(OC)c1OC`, in [1], the Tmax is 6 min. Moreover, the Vdss in [2] came out at 1036.2 L/kg; in series [3] it was 91.5 L/kg. This molecule also returned a bioavailability in series [4] of 11.6%. Further, the Activity in [5] was 9.21%; in series [7], 69.71%; in series [8], 91.09%; in series [9], 0.46%; in series [10], “Dose-Dependent Effect”; in series [12] it was 19.86%. The MRT inf in series [6] came to 7.9 h. Further, in [11], the outcome was Active. This molecule gave a CL/F in series [13] of 2180 mL/min/kg. In addition, in [14], the viability at 0.12 µM was 65.2%. Besides, the MRT in [15] came out at 1.8 h.
